One may read the IC50 as the concentration that gives 50% inhibition. Read a high IC50 as lower potency.

SMILES strings stand for the structures.

The target in the assay is T1, human plasma protein factor Xa (Homo sapiens, UniProt P00742).
T1 construct: measure proteolytic activity of the enzyme (factor Xa); purchased Haematologic Technologies (Essex Junction, Vt.); host or cells: human plasma
T1 sequence (P00742 235-488 limits assumed): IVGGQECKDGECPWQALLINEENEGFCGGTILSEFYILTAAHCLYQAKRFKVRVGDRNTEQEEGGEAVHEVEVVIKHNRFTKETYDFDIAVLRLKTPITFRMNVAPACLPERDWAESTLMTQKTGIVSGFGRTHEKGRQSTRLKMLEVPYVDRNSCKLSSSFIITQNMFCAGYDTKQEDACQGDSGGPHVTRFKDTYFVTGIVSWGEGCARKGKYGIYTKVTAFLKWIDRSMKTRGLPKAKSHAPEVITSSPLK
T1 sequence (P00742 41-179 partner limits assumed): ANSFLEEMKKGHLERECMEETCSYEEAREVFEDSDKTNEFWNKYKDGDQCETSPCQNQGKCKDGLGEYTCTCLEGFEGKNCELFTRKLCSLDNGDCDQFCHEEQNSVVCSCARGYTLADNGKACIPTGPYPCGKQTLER
Nature of the assay: Factor Xa IC50 determination: cleavage of paranitroanilide substrate S-2765 in 96-well plates. The conditions noted are these: fXa 1 nM, S-2765 100 μM, Tris buffered saline pH 7.4, room temperature. The format is biochemical. In a few lines: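 Initial rates of S-2765 (100 μM final) cleavage, read at 405 nm for 2 min, fitted with a four-parameter equation to give IC50. Enzyme: 1 nM human plasma fXa, 5 min room-temperature preincubation with inhibitor (0.01 nM–10 μM) in 20 mM Tris, 150 mM NaCl, 5 mM CaCl2, 0.1% BSA, 5% DMSO, pH 7.4; duplicates.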
The compound `CN(C)Cc1cccc(-c2ccc(-c3cc(CNC(=O)c4ccc(Cl)s4)on3)cc2)c1` [Example 211, 5-Chloro-thiophene-2-carboxylic acid [3-(3′-dimethylaminomethyl-biphenyl-4-yl)-isoxazol-5-ylmethyl]-amide] yielded a half-maximal inhibitory concentration (IC50) of 0.1 to 0.5 µM.
As for `COc1cc(C2=NCCN2C)ccc1-c1cc(CNC(=O)c2ccc(Cl)s2)on1` [Example 119, 5-Chloro-thiophene-2-carboxylic acid {3-[2-methoxy-4-(1-methyl-4,5-dihydro-1H-imidazol-2-yl)-phenyl]-isoxazol-5-ylmethyl}-amide], the IC50 was ≤ 0.1 µM.
To `N=C(c1ccc(-c2cc(CNC(=O)c3ccc(Cl)s3)on2)c(Oc2ccccc2)c1)N1CCCC1` [Example 132, 5-Chloro-thiophene-2-carboxylic acid {3-[4-(imino-pyrrolidin-1-yl-methyl)-2-phenoxy-phenyl]-isoxazol-5-ylmethyl}-amide] belongs ≤ 0.1 µM.
To `O=C(NCc1cc(-c2ccc(NCc3ccccc3)cc2)no1)c1ccc(Cl)s1` [Example 258, 5-Chloro-thiophene-2-carboxylic acid [3-(4-benzylamino-phenyl)-isoxazol-5-ylmethyl]-amide] belongs ≥ 0.5 µM.
To `COC(=O)c1cccc(Nc2ccc(C3=NOC(CNC(=O)c4ccc(Cl)s4)C3)cc2)c1` (centres unmarked) [Example 261, 3-[4-(5-{[(5-Chloro-thiophene-2-carbonyl)-amino]-methyl}-4,5-dihydro-isoxazol-3-yl)-phenylamino]-benzoic acid methyl ester] belongs ≥ 0.5 µM; to `CN1CCN=C1c1ccc(-c2nc(CNC(=O)c3ccc(Cl)s3)co2)cc1` [Example 339, 5-Chloro-N-((2-(4-(1-methyl-4,5-dihydro-1H-imidazol-2-yl)phenyl)oxazol-4-yl)methyl)thiophene-2-carboxamide], ≤ 0.1 µM; to `N=C(c1ccc(C2=NOC(CNC(=O)c3ccc(Cl)s3)C2)c(OC2CCCC2)c1)N1CCCC1` (centres unmarked) [Example 114, 5-Chloro-thiophene-2-carboxylic acid {3-[2-cyclopentyloxy-4-(imino-pyrrolidin-1-yl-methyl)-phenyl]-4,5-dihydro-isoxazol-5-ylmethyl}-amide], ≤ 0.1 µM.
On to `CN(C)Cc1ccccc1-c1ccc(C2=NOC(CNC(=O)c3ccc(Cl)s3)C2)cc1` (centres unmarked) [Example 194, 5-Chloro-thiophene-2-carboxylic acid [3-(2′-dimethylaminomethyl-biphenyl-4-yl)-4,5-dihydro-isoxazol-5-ylmethyl]-amide], for which the IC50 is ≤ 0.1 µM.
To `COc1cc(C(=N)N(C)C)ccc1C1=NOC(CNC(=O)c2ccc(Cl)s2)C1` (centres unmarked) [Example 102, 5-Chloro-thiophene-2-carboxylic acid {3-[4-(N,N-dimethyl-carbamimidoyl)-2-methoxy-phenyl]-4,5-dihydro-isoxazol-5-ylmethyl}-amide] belongs ≤ 0.1 µM.
To `COc1ccc(C2=NOC(C)(CNC(=O)c3ccc(Cl)s3)C2)cc1` (centres unmarked) [Example 151, 5-Chloro-thiophene-2-carboxylic acid [3-(4-methoxy-phenyl)-5-methyl-4,5-dihydro-isoxazol-5-ylmethyl]-amide] belongs ≥ 0.5 µM.
On to `COc1ccc(CN2CCCC2)c(-c2ccc(-c3cc(CNC(=O)c4ccc(Cl)s4)on3)cc2)c1` [Example 216, 5-Chloro-thiophene-2-carboxylic acid [3-(5′-methoxy-2′-pyrrolidin-1-ylmethyl-biphenyl-4-yl)-isoxazol-5-ylmethyl]-amide], for which the IC50 is ≤ 0.1 µM.
To `N=C(c1ccc(-n2cc(CNC(=O)c3ccc(Cl)s3)nn2)c(F)c1)N1CCCCC1` [Example 323, 5-Chloro-N-((1-(2-fluoro-4-(imino(piperidin-1-yl)methyl)phenyl)-1H-1,2,3-triazol-4-yl)methyl)thiophene-2-carboxamide] belongs ≤ 0.1 µM; to `COc1ccc(-c2ccc(-c3cc(CNC(=O)c4ccc(Cl)s4)on3)cc2)c(CN(C)C)c1` [Example 217, 5-Chloro-thiophene-2-carboxylic acid [3-(2′-dimethylaminomethyl-4′-methoxy-biphenyl-4-yl)-isoxazol-5-ylmethyl]-amide], ≤ 0.1 µM.
On to `N=C(c1ccccc1)N1CCC(C2=NOC(CNC(=O)c3ccc(Cl)s3)C2)CC1` (centres unmarked) [Example 174, 5-Chloro-thiophene-2-carboxylic acid {3-[1-(imino-phenyl-methyl)-piperidin-4-yl]-4,5-dihydro-isoxazol-5-ylmethyl}-amide], for which the IC50 was ≥ 0.5 µM.
To `CN1CCN(c2cc(-n3ccccc3=O)ccc2-n2cc(CNC(=O)c3ccc(Cl)s3)nn2)CC1` [Example 308, 5-Chloro-N-((1-(2-(4-methylpiperazin-1-yl)-4-(2-oxopyridin-1(2H)-yl)phenyl)-1H-1,2,3-triazol-4-yl)methyl)thiophene-2-carboxamide] belongs ≤ 0.1 µM.
To `CN1CCC(Nc2ccc(C3=NOC(CNC(=O)c4ccc(Cl)s4)C3)cc2)CC1` (centres unmarked) [Example 237, 5-Chloro-thiophene-2-carboxylic acid {3-[4-(1-methyl-piperidin-4-ylamino)-phenyl]-4,5-dihydro-isoxazol-5-ylmethyl}-amide] belongs 0.1 to 0.5 µM; to `CCN(C)C(=N)c1ccc(-c2cc(CNC(=O)c3ccc(Cl)s3)on2)cc1` [Example 28, 5-Chloro-thiophene-2-carboxylic acid {3-[4-(N-ethyl-N-methyl-carbamimidoyl)-phenyl]-isoxazol-5-ylmethyl}-amide], ≤ 0.1 µM; to `CN1CCN=C1c1ccc(-c2csc(CNC(=O)c3ccc(Cl)s3)n2)cc1` [Example 361, 5-Chloro-N-((4-(4-(1-methyl-4,5-dihydro-1H-imidazol-2-yl)phenyl)thiazol-2-yl)methyl)thiophene-2-carboxamide], ≥ 0.5 µM.
To `N=C(c1ccc(-c2cncc(CNC(=O)c3ccc(Cl)s3)c2)cc1)N1CCCC1` [Example 372, 5-Chloro-N-((5-(4-(imino(pyrrolidin-1-yl)methyl)phenyl)pyridin-3-yl)methyl)thiophene-2-carboxamide] belongs ≤ 0.1 µM; to `O=C(NCc1cc(-c2cccc(-c3cccnc3)c2)no1)c1ccc(Cl)s1` [Example 276, 5-Chloro-thiophene-2-carboxylic acid [3-(3-pyridin-3-yl-phenyl)-isoxazol-5-ylmethyl]-amide], ≥ 0.5 µM; to `N=C(c1ccc(-c2noc(CNC(=O)c3ccc(Cl)s3)n2)cc1)N1CCCC1` [Example 336, 5-Chloro-N-((3-(4-(imino(pyrrolidin-1-yl)methyl)phenyl)-1,2,4-oxadiazol-5-yl)methyl)thiophene-2-carboxamide], ≤ 0.1 µM.
Regarding `CSc1cc(C2=NCCN2C)ccc1-c1cc(CNC(=O)c2ccc(Cl)s2)on1` [Example 141, 5-Chloro-thiophene-2-carboxylic acid {3-[4-(1-methyl-4,5-dihydro-1H-imidazol-2-yl)-2-methylsulfanyl-phenyl]-isoxazol-5-ylmethyl}-amide], the half-inhibitory concentration (IC50) is ≤ 0.1 µM.
To `O=C(NCc1cc(-c2ccc(C(N3CCC3)=[N+]3CCC3)cc2)no1)c1ccc(Cl)s1` [Example 27, 5-Chloro-thiophene-2-carboxylic acid {3-[4-(azetidin-1-yl-azetidin-1-ylidene-methyl)-phenyl]-isoxazol-5-ylmethyl}-amide] belongs ≤ 0.1 µM.
To `CCCN(C)C(=N)c1ccc(-n2cc(CNC(=O)c3ccc(Cl)s3)nn2)cc1` [Example 315, N-((1-(4-(N-Methyl-N-propylcarbamimidoyl)phenyl)-1H-1,2,3-triazol-4-yl)methyl)-5-chlorothiophene-2-carboxamide] belongs ≤ 0.1 µM; to `O=C(NCc1cc(-c2ccc(-c3cccnc3)cc2)no1)c1ccc(Cl)s1` [Example 192, 5-Chloro-thiophene-2-carboxylic acid [3-(4-pyridin-3-yl-phenyl)-isoxazol-5-ylmethyl]-amide], ≥ 0.5 µM.
Turning to `COCCN(C)C(=N)c1ccc(-n2cc(CNC(=O)c3ccc(Cl)s3)nn2)cc1` [Example 316, N-((1-(4-(N-(2-Methoxyethyl)-N-methylcarbamimidoyl)phenyl)-1H-1,2,3-triazol-4-yl)methyl)-5-chlorothiophene-2-carboxamide], the IC50 is ≤ 0.1 µM.
To `N=C(N)N1CCC(C2=NOC(CNC(=O)c3ccc(Cl)s3)C2)CC1` (centres unmarked) [Example 172, 5-Chloro-thiophene-2-carboxylic acid [3-(1-carbamimidoyl-piperidin-4-yl)-4,5-dihydro-isoxazol-5-ylmethyl]-amide] belongs ≥ 0.5 µM; to `O=C(NCc1cc(-c2ccc(Nc3cccnc3)cc2)no1)c1ccc(Cl)s1` [Example 253, 5-Chloro-thiophene-2-carboxylic acid {3-[4-(pyridin-3-ylamino)-phenyl]-isoxazol-5-ylmethyl}-amide], ≤ 0.1 µM.
To `O=C(NCc1cc(-c2ccc(Cl)cc2)no1)c1ccc(Cl)s1` [Example 155, 5-Chloro-thiophene-2-carboxylic acid [3-(4-chloro-phenyl)-isoxazol-5-ylmethyl]-amide] belongs ≥ 0.5 µM.
To `O=C(NCc1cn(-c2ccc(I)cc2F)nn1)c1ccc(Cl)s1` [Example 304, 5-Chloro-N-((1-(2-fluoro-4-iodophenyl)-1H-1,2,3-triazol-4-yl)methyl)thiophene-2-carboxamide] belongs ≥ 0.5 µM; to `O=C(NCc1cc(-c2ccc(N3CCCC3)cc2)no1)c1ccc(Cl)s1` [Example 256, 5-Chloro-thiophene-2-carboxylic acid [3-(4-pyrrolidin-1-yl-phenyl)-isoxazol-5-ylmethyl]-amide], ≥ 0.5 µM.
Take `N=C(c1ccc(-n2cc(CNC(=O)c3ccc(Cl)s3)cn2)cc1)N1CCC1` [Example 327, N-((1-(4-(Azetidin-1-yl(imino)methyl)phenyl)-1H-pyrazol-4-yl)methyl)-5-chlorothiophene-2-carboxamide]: the IC50 was ≤ 0.1 µM.

These data come from patent publication US8377974B2 (Millennium Pharmaceuticals, Inc., priority 2004, dated 2013).
